Assay results from US10561142B2, “Dispersed lactams” (Conopco, Inc., priority 2015, dated 2020).

Experiment: Dissolution of lactam / PVP solid dispersion in water (visual, FIG. 1)
Assay type: physicochemical
Conditions: added to water, amount of lactam equivalent to that in the 1% lactam/PVP solid dispersion
Text: The inventor(s) have shown that solid dispersion of lactam in PVP confers enhanced aqueous solubility to the lactam. […] Note that this example is a proof of concept, and the lactam used was 4-(4-fluorophenyl)-5-methylene-pyrrol-2-one.
Such solid dispersions dissolve rapidly to give clear solutions.

In the case of `C=C1NC(=O)C=C1c1ccc(F)cc1` [4-(4-fluorophenyl)-5-methylene-pyrrol-2-one], the “dissolution in water (aqueous solubility)” value is reported as “does not dissolve”.
